Results from patent publication US20120029187A1, “HALOALKYLSULFONANILIDE DERIVATIVE” (Nissan Chemical Industries, Ltd., priority 2009, published 2012).

Key:
Assay type in all cases: in vivo
[1] = tested on: transplanted rice; experiment: Test Example 1: preemergence treatment under submerged conditions, effect on crop; settings: dose 2.52 g/a
Method in brief: (§1)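 Submerged conditions, 4 cm water over alluvial soil. Weeds sown and 2.5-leaf rice transplanted; compound applied preemergence to water surface, doses in g per are. Greenhouse, 25 to 30° C., three weeks, then 0–5 mortality rating.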

[2] = tested on: bulrush; experiment: Test Example 2: herbicidal effects during the vegetation period under submerged conditions; settings: treatment during the vegetation period under submerged conditions; dose 2.52 g/a
Method in brief: (§2)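 Barnyardgrass, bulrush and ducksalad were co-sown in alluvial soil flooded to 4 cm and grown in a greenhouse at 25 to 30° C. At the 1- or 2-leaf stage, water-diluted emulsifiable concentrates went onto the water surface at set doses (g/a). Herbicidal effect was scored three weeks later on a graded scale.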

[3] = tested on: barnyardgrass; experiment: as above; settings: treatment during the vegetation period under submerged conditions; dose 2.52 g/a
Method in brief: as §2

[4] = tested on: ducksalad; experiment: as above; settings: treatment during the vegetation period under submerged conditions; dose 2.52 g/a
Method in brief: as §2

[5] = tested on: velvetleaf; experiment: Test Example 4: herbicidal effect in foliage treatment; settings: dose 3.2 g/a
Method in brief: (§3)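 Weeds and crops sown in sterilized diluvial soil under ~1.5 cm cover and grown in greenhouse at 25 to 30° C. At 14 days, water-diluted emulsifiable concentrate sprayed onto foliage at set doses (g/a); herbicidal effect scored on a rating scale three weeks after application.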

[6] = tested on: large crabgrass; experiment: as above; settings: dose 3.2 g/a
Method in brief: as §3

[7] = tested on: beadstraw; experiment: as above; settings: dose 3.2 g/a
Method in brief: as §3

[8] = tested on: barnyardgrass; experiment: as above; settings: dose 3.2 g/a
Method in brief: as §3

[9] = tested on: redroot pigweed; experiment: as above; settings: dose 3.2 g/a
Method in brief: as §3

[10] = tested on: water foxtail; experiment: as above; settings: dose 3.2 g/a
Method in brief: as §3

[11] = tested on: common lambsquater; experiment: as above; settings: dose 3.2 g/a
Method in brief: as §3

[12] = tested on: common ragweed; experiment: as above; settings: dose 3.2 g/a
Method in brief: as §3

[13] = tested on: common chickweed; experiment: as above; settings: dose 3.2 g/a
Method in brief: as §3

[14] = tested on: giant foxtail; experiment: as above; settings: dose 3.2 g/a
Method in brief: as §3

[15] = tested on: posumbu knotweed; experiment: as above; settings: dose 3.2 g/a
Method in brief: as §3

[16] = tested on: Italian ryegrass; experiment: as above; settings: dose 3.2 g/a
Method in brief: as §3

[17] = tested on: bulrush; experiment: Test Example 1: herbicidal effects in preemergence treatment under submerged conditions; settings: dose 2.52 g/a
Method in brief: as §1

[18] = tested on: barnyardgrass; experiment: as above; settings: dose 2.52 g/a
Method in brief: as §1

[19] = tested on: ducksalad; experiment: as above; settings: dose 2.52 g/a
Method in brief: as §1

[20] = tested on: velvetleaf; experiment: Test Example 3: herbicidal effects in soil treatment; settings: dose 3.2 g/a
Method in brief: (§4)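 Seeds were sown in sterilized diluvial soil and covered with about 1.5 cm of soil. Compounds, formulated as emulsifiable concentrates and diluted with water, were sprayed evenly over the soil surface at set doses in g/a. Herbicidal effect was scored on a rating scale three weeks later.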

[21] = tested on: large crabgrass; experiment: as above; settings: dose 3.2 g/a
Method in brief: as §4

[22] = tested on: beadstraw; experiment: as above; settings: dose 3.2 g/a
Method in brief: as §4

[23] = tested on: barnyardgrass; experiment: as above; settings: dose 3.2 g/a
Method in brief: as §4

[24] = tested on: redroot pigweed; experiment: as above; settings: dose 3.2 g/a
Method in brief: as §4

[25] = tested on: water foxtail; experiment: as above; settings: dose 3.2 g/a
Method in brief: as §4

[26] = tested on: common lambsquater; experiment: as above; settings: dose 3.2 g/a
Method in brief: as §4

[27] = tested on: common ragweed; experiment: as above; settings: dose 3.2 g/a
Method in brief: as §4

[28] = tested on: common chickweed; experiment: as above; settings: dose 3.2 g/a
Method in brief: as §4

[29] = tested on: giant foxtail; experiment: as above; settings: dose 3.2 g/a
Method in brief: as §4

[30] = tested on: posumbu knotweed; experiment: as above; settings: dose 3.2 g/a
Method in brief: as §4

[31] = tested on: Italian ryegrass; experiment: as above; settings: dose 3.2 g/a
Method in brief: as §4

[32] = three weeks after the application

Structure (SMILES): O=C1CC2(CCCCC2)OCN1Cc1ccccc1NS(=O)(=O)C(F)(F)F [II-67]
- a: transplanted rice, effect on crop (evaluation scale 0-5) [1]: 0 (mortality of less than 5% (almost ineffective))
- B: bulrush, herbicidal effect (evaluation scale 0-5) [2]: 5 (mortality of 90% or above (nearly complete death))
- A: barnyardgrass, herbicidal effect (evaluation scale 0-5) [3]: 5 (mortality of 90% or above (nearly complete death))
- C: ducksalad, herbicidal effect (evaluation scale 0-5) [4]: 5 (mortality of 90% or above (nearly complete death))
- I: velvetleaf, herbicidal effect ([5]; three weeks after application): 5 (mortality of 90% or above (nearly complete death))
- D: large crabgrass, herbicidal effect ([6]; three weeks after application): 5 (mortality of 90% or above (nearly complete death))
- O: beadstraw, herbicidal effect ([7]; three weeks after application): 3 (mortality of at least 40% and less than 70%)
- A: barnyardgrass, herbicidal effect ([8]; three weeks after application): 5 (mortality of 90% or above (nearly complete death))
- K: redroot pigweed, herbicidal effect ([9]; three weeks after application): 0 (mortality of less than 5% (almost ineffective))
- G: water foxtail, herbicidal effect ([10]; three weeks after application): 5 (mortality of 90% or above (nearly complete death))
- L: common lambsquater, herbicidal effect ([11]; three weeks after application): 4 (mortality of at least 70% and less than 90%)
- J: common ragweed, herbicidal effect ([12]; three weeks after application): 3 (mortality of at least 40% and less than 70%)
- N: common chickweed, herbicidal effect ([13]; three weeks after application): 4 (mortality of at least 70% and less than 90%)
- E: giant foxtail, herbicidal effect ([14]; three weeks after application): 5 (mortality of 90% or above (nearly complete death))
- M: posumbu knotweed, herbicidal effect ([15]; three weeks after application): 3 (mortality of at least 40% and less than 70%)
- H: Italian ryegrass, herbicidal effect ([16]; three weeks after application): 2 (mortality of at least 20% and less than 40%)
- B: bulrush, herbicidal effect (evaluation scale 0-5) [17]: 5 (mortality of 90% or above (nearly complete death))
- A: barnyardgrass, herbicidal effect (evaluation scale 0-5) [18]: 5 (mortality of 90% or above (nearly complete death))
- C: ducksalad, herbicidal effect (evaluation scale 0-5) [19]: 5 (mortality of 90% or above (nearly complete death))
- I: velvetleaf, herbicidal effect (evaluation scale 0-5) [20]: 5 (mortality of 90% or above (nearly complete death))
- D: large crabgrass, herbicidal effect (evaluation scale 0-5) [21]: 5 (mortality of 90% or above (nearly complete death))
- O: beadstraw, herbicidal effect (evaluation scale 0-5) [22]: 5 (mortality of 90% or above (nearly complete death))
- A: barnyardgrass, herbicidal effect (evaluation scale 0-5) [23]: 5 (mortality of 90% or above (nearly complete death))
- K: redroot pigweed, herbicidal effect (evaluation scale 0-5) [24]: 3 (mortality of at least 40% and less than 70%)
- G: water foxtail, herbicidal effect (evaluation scale 0-5) [25]: 5 (mortality of 90% or above (nearly complete death))
- L: common lambsquater, herbicidal effect (evaluation scale 0-5) [26]: 5 (mortality of 90% or above (nearly complete death))
- J: common ragweed, herbicidal effect (evaluation scale 0-5) [27]: 2 (mortality of at least 20% and less than 40%)
- N: common chickweed, herbicidal effect (evaluation scale 0-5) [28]: 5 (mortality of 90% or above (nearly complete death))
- E: giant foxtail, herbicidal effect (evaluation scale 0-5) [29]: 5 (mortality of 90% or above (nearly complete death))
- M: posumbu knotweed, herbicidal effect (evaluation scale 0-5) [30]: 5 (mortality of 90% or above (nearly complete death))
- H: Italian ryegrass, herbicidal effect (evaluation scale 0-5) [31]: 5 (mortality of 90% or above (nearly complete death))

Structure (SMILES): CC1CON(Cc2ccccc2NS(=O)(=O)C(F)(F)F)C(=O)O1 (centres unmarked) [III-3]
- a: transplanted rice, effect on crop (evaluation scale 0-5) [1]: 0 (mortality of less than 5% (almost ineffective))
- B: bulrush, herbicidal effect (evaluation scale 0-5) [2]: 5 (mortality of 90% or above (nearly complete death))
- A: barnyardgrass, herbicidal effect (evaluation scale 0-5) [3]: 5 (mortality of 90% or above (nearly complete death))
- C: ducksalad, herbicidal effect (evaluation scale 0-5) [4]: 5 (mortality of 90% or above (nearly complete death))
- I: velvetleaf, herbicidal effect [5, 32]: 2 (mortality of at least 20% and less than 40%)
- D: large crabgrass, herbicidal effect [6, 32]: 4 (mortality of at least 70% and less than 90%)
- O: beadstraw, herbicidal effect [7, 32]: 4 (mortality of at least 70% and less than 90%)
- A: barnyardgrass, herbicidal effect [8, 32]: 5 (mortality of 90% or above (nearly complete death))
- K: redroot pigweed, herbicidal effect [9, 32]: 0 (mortality of less than 5% (almost ineffective))
- G: water foxtail, herbicidal effect [10, 32]: 5 (mortality of 90% or above (nearly complete death))
- L: common lambsquater, herbicidal effect [11, 32]: 0 (mortality of less than 5% (almost ineffective))
- J: common ragweed, herbicidal effect [12, 32]: 4 (mortality of at least 70% and less than 90%)
- N: common chickweed, herbicidal effect [13, 32]: 4 (mortality of at least 70% and less than 90%)
- E: giant foxtail, herbicidal effect [14, 32]: 4 (mortality of at least 70% and less than 90%)
- M: posumbu knotweed, herbicidal effect [15, 32]: 2 (mortality of at least 20% and less than 40%)
- H: Italian ryegrass, herbicidal effect [16, 32]: 0 (mortality of less than 5% (almost ineffective))
- B: bulrush, herbicidal effect (evaluation scale 0-5) [17]: 5 (mortality of 90% or above (nearly complete death))
- A: barnyardgrass, herbicidal effect (evaluation scale 0-5) [18]: 4 (mortality of at least 70% and less than 90%)
- C: ducksalad, herbicidal effect (evaluation scale 0-5) [19]: 5 (mortality of 90% or above (nearly complete death))
- herbicidal effect, I: velvetleaf [20]: 1 (mortality of at least 5% and less than 20%)
- herbicidal effect, D: large crabgrass [21]: 5 (mortality of 90% or above (nearly complete death))
- herbicidal effect, O: beadstraw [22]: 0 (mortality of less than 5% (almost ineffective))
- herbicidal effect, A: barnyardgrass [23]: 5 (mortality of 90% or above (nearly complete death))
- herbicidal effect, K: redroot pigweed [24]: 0 (mortality of less than 5% (almost ineffective))
- herbicidal effect, G: water foxtail [25]: 5 (mortality of 90% or above (nearly complete death))
- herbicidal effect, L: common lambsquater [26]: 0 (mortality of less than 5% (almost ineffective))
- herbicidal effect, J: common ragweed [27]: 5 (mortality of 90% or above (nearly complete death))
- herbicidal effect, N: common chickweed [28]: 4 (mortality of at least 70% and less than 90%)
- herbicidal effect, E: giant foxtail [29]: 5 (mortality of 90% or above (nearly complete death))
- herbicidal effect, M: posumbu knotweed [30]: 5 (mortality of 90% or above (nearly complete death))
- herbicidal effect, H: Italian ryegrass [31]: 0 (mortality of less than 5% (almost ineffective))
